One assay concerns the target T1, TMEM16A (Homo sapiens, UniProt Q5XXA6).
T1 construct: expressed in transfected cells; host or cells: HEK293T-derived, doxycycline-inducible
T1 sequence (Q5XXA6 1-986): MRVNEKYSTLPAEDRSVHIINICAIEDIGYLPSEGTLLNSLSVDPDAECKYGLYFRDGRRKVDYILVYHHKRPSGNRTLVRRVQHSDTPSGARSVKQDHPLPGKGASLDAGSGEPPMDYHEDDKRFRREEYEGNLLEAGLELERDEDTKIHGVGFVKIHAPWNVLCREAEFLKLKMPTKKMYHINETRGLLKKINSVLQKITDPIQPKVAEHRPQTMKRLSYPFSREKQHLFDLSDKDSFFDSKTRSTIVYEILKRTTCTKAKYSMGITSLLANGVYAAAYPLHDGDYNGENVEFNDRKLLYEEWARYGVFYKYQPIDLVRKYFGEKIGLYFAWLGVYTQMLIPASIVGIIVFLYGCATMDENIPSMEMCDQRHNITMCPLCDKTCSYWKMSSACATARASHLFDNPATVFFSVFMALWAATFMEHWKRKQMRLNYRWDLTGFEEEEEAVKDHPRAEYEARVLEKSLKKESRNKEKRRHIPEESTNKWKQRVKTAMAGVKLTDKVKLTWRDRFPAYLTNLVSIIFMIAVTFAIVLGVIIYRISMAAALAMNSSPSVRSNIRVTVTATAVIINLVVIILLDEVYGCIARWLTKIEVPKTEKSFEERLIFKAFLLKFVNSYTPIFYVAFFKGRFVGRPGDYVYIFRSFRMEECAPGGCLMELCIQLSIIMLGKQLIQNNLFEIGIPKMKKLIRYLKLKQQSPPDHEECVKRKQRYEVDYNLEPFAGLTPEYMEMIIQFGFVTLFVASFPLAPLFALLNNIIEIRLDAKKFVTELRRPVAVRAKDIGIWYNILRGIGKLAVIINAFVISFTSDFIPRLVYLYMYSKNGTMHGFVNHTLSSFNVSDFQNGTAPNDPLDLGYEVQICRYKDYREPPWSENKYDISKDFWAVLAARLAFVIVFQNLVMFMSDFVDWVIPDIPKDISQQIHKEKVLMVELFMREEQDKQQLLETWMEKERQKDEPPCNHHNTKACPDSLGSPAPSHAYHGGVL
Kind of assay: QPatch-48 assay on HEK293T-derived cell line with doxycycline-induced expression. The format is cell-based. As to conditions: 30 μM; expression induced with 10 ng/mL doxycycline. The protocol: In addition, another cell line that was HEK293T-derived and induced expression of TMEM16A on addition of 10 ng/mL of doxycycline also performed well on the assay. […] These two other cell lines were run on the machine using the predefined parameters that were optimized with the original cells, including the cell preparation protocol. Therefore, it seems that this assay is easily transferable to any cell line expressing TMEM16A.
Background: Patch clamp records ionic current or voltage across a cell membrane.

For assay [1], the target named is T2, human ANO1 channel (isoform acd) (Homo sapiens, UniProt Q5XXA6).
T2 construct: host or cells: HEK293T
T2 sequence (Q5XXA6 1-986): T1 sequence (Q5XXA6 1-986)
Nature of the assay: QPatch-48 single-concentration/multiple-addition (extended incubation) protocol. The format is cell-based. The protocol:
As mentioned, due to the nature of the channel and its rundown issues, time limitations exist for recording. Therefore, each concentration of compound is added to the cell for a duration of 60 s. It is possible that the IC50 is shifted for those compounds that require a longer time to act on the channel. To account for this, a single-concentration/multiple-addition protocol was established (Fig. 6). […] This led us to wonder if we were missing the full response to the concentration before the next liquid period began and the more concentrated, cumulative addition was applied to the cell. The original application protocol was amended to allow for two 4-min incubations with the same concentration of compound. The total length of the assay is roughly 15 min, with two 1-min saline additions to stabilize current, two 1-min vehicle additions to account for any DMSO effects, and two 4-min compound additions, ending with two 1-min saline additions to look for washout effects. The same IV voltage protocol was used as well as the same whole-cell conditions and solutions. When niclosamide was run with this extended incubation protocol, the IC50 was four times as potent (Fig. 6), aligning nicely with the other in-house assays that were run. A DMSO condition was included to account for any rundown that occurred, with the result of 92% current remaining at the end of the assay. Therefore, the block observed with niclosamide additions was not due to rundown. When 240 nM was added, the current plateaued at ∼60% current amplitude. […] Any compounds that result in partial inhibition with the original assay can be run on the multiple-addition assay to see if they require more time to inhibit the channel.
Fig. 6. Current time plots of the modified protocol with multiple additions of a single concentration. Top: IT plot when 240 nM niclosamide is added to a cell. Bottom: IT plot when 1.2 μM niclosamide is added to a cell.

Like-named read-outs stand apart in the source and are kept apart here.

Regarding `CCc1oc2ccccc2c1C(=O)c1cc(Br)c(O)c(Br)c1` [Benzbromarone], the block of currents result at TMEM16A is “fully blocked”.

With `O=C(Nc1ccc([N+](=O)[O-])cc1Cl)c1cc(Cl)ccc1O` [Niclosamide], the “current amplitude at plateau” value in assay [1] (240 nM) is recorded as ~60%. The “block in current after first 4-min incubation” value in assay [1] (1.2 μM, after first addition) was 50%. Also, in assay [1] (1.2 μM, after second 4-min addition), the “final block after second addition” value is listed as 78%. Further, the IC50 in assay [1] (Fig. 6 table in picture, read-out: IC50, Single Concentration- Multiple Additions) was determined as 0.352 µM; in assay [1] (single concentration, multiple additions, Fig. 6 curve, read-out: IC50, modified single-concentration assay) it was 0.352 µM; in assay [1] (two 4-min additions of the same concentration, n = 2, read-out: final IC50 (mean ± SD)), 0.221 ± 0.185 µM.

The values are drawn from publication PMC7268545, “Development of a QPatch-Automated Electrophysiology Assay for Identifying TMEM16A Small-Molecule Inhibitors” (Assay and Drug Development Technologies, 2020).
